These are literature values, as cited in US20230065168A1, “[…] COMBINATION WITH A REPLICATION-DEFICIENT TYPE 5 […] EXPRESSION OF INTERFERON GAMMA FOR THE TREATMENT OF SKIN CANCER” (ASCEND BIOPHARMACEUTICALS LTD, priority 2021, published 2023).

Each structure is given as a SMILES string.

As to `CS(=O)(=O)c1ccc(C(=O)Nc2ccc(Cl)c(-c3ccccn3)c2)c(Cl)c1` [vismodegib, 2-Chloro-N-(4-chloro-3-(pyridin-2-yl)phenyl)-4-(methylsulfonyl)benzamide], under “oral daily treatment”, the “time at which adverse events generally begin to manifest” value was 6-8 weeks. Besides, the “adverse events commonly associated with administration” value (patients with advanced BCC) was “muscle spasms, alopecia, dysgeusia, weight loss, fatigue, nausea, diarrhea, decreased appetite, constipation, arthralgia, vomiting, and ageusia”.
